The record followed here is PubChem BioAssay (NCI).

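Step 1: Grow cells in 96-well plates. Step 2: Expose to compound for 48 hours at 5 concentrations. Step 3: Interpolate endpoints linearly; if unreached, use highest concentration. TGI: total growth inhibition.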

Some test systems named below: ACHN renal; M14 melanoma; MALME-3M melanoma; SW-620 colon; MDA-MB-435; HCT-116 colon; NCI/ADR-RES ovarian; RPMI-8226 leukemia; HS 578T breast; OVCAR-5 ovarian; SR leukemia; HL-60(TB) leukemia; MDA-MB-231 breast; HT29 colon; OVCAR-8 ovarian; K-562 leukemia; CAKI-1 renal; PC-3 prostate.
What all share (assay): NCI-60 cell line screen, 48 h

Regarding `CC(C)Oc1ccc(CNC2=NCCO2)c2ccccc12`, the TGI came to 27.7 µM in the experiment on ACHN renal; 24.4 µM with M14 melanoma; 28 µM with MALME-3M melanoma; 31.7 µM in the experiment on SW-620 colon; 24.2 µM in the experiment on MDA-MB-435; 27 µM with HCT-116 colon. Further, the TGI is 31.9 µM with NCI/ADR-RES ovarian; 28.3 µM in the experiment with RPMI-8226 leukemia; 32 µM with HS 578T breast; 24.3 µM with OVCAR-5 ovarian; 26.3 µM in the experiment on SR leukemia; 23.6 µM with HL-60(TB) leukemia. Besides, the TGI was determined as 28.9 µM in the experiment with MDA-MB-231 breast, 16.3 µM in the experiment on HT29 colon, 31.9 µM with OVCAR-8 ovarian and 15.8 µM with K-562 leukemia.

In the case of `O=C1/C(=C/c2ccccc2)N=C(c2ccccc2)N1C1Nc2cc3c(cc2S1)NC(N1C(=O)/C(=C/c2ccccc2)N=C1c1ccccc1)S3` (stereo not drawn), the TGI was more than 100 µM in the experiment with CAKI-1 renal; more than 100 µM in the experiment on ACHN renal; more than 100 µM with M14 melanoma; 78.5 µM with SW-620 colon; 47.1 µM with MDA-MB-435; more than 100 µM in the experiment with PC-3 prostate. The TGI in the experiment on HCT-116 colon was more than 100 µM; with NCI/ADR-RES ovarian, more than 100 µM; in the experiment with RPMI-8226 leukemia it was 68.4 µM; with OVCAR-5 ovarian, more than 100 µM; in the experiment with SR leukemia, more than 100 µM; in the experiment with HL-60(TB) leukemia, more than 100 µM. The TGI with MDA-MB-231 breast, in the experiment with HT29 colon, in the experiment with OVCAR-8 ovarian and with K-562 leukemia was more than 100 µM throughout.

Take `Cc1cc(C)n(-c2nc3ccccc3c(=O)n2-c2ccccc2)n1`: the TGI in the experiment on CAKI-1 renal, in the experiment on ACHN renal, in the experiment with M14 melanoma, in the experiment on MALME-3M melanoma, with SW-620 colon and with MDA-MB-435 was more than 100 µM each time. The TGI in the experiment on PC-3 prostate, in the experiment on HCT-116 colon, in the experiment with NCI/ADR-RES ovarian, in the experiment with OVCAR-5 ovarian, with SR leukemia and with HL-60(TB) leukemia was more than 100 µM each time. For the same compound, the TGI in the experiment with MDA-MB-231 breast, with HT29 colon, in the experiment on OVCAR-8 ovarian and in the experiment on K-562 leukemia was more than 100 µM in each case.

`CC(C)c1c(O[Si](C(C)C)(C(C)C)C(C)C)c2c3c(ccc4c3c1OC4(C)C)C(C)CC2` (stereo not drawn): the TGI in the experiment with CAKI-1 renal, with ACHN renal, in the experiment on M14 melanoma, in the experiment on MALME-3M melanoma, with SW-620 colon and in the experiment with MDA-MB-435 was more than 100 µM in each case. In addition, the TGI with PC-3 prostate, in the experiment with HCT-116 colon, with NCI/ADR-RES ovarian, in the experiment on RPMI-8226 leukemia, in the experiment on HS 578T breast and with OVCAR-5 ovarian was more than 100 µM throughout. Further, the TGI in the experiment with SR leukemia, in the experiment on HL-60(TB) leukemia, with MDA-MB-231 breast, in the experiment with HT29 colon, in the experiment on OVCAR-8 ovarian and in the experiment on K-562 leukemia was more than 100 µM in each case.

Consider `CN1CCCC1=NC#N`, for which the TGI with CAKI-1 renal, in the experiment with ACHN renal, in the experiment on M14 melanoma, in the experiment on MALME-3M melanoma, in the experiment with SW-620 colon and with MDA-MB-435 was more than 100 µM each time. Further, the TGI in the experiment with PC-3 prostate, in the experiment with HCT-116 colon, in the experiment on NCI/ADR-RES ovarian, in the experiment with RPMI-8226 leukemia, with HS 578T breast and in the experiment with OVCAR-5 ovarian was more than 100 µM each time. Also, the TGI in the experiment on SR leukemia, in the experiment on HL-60(TB) leukemia, with MDA-MB-231 breast, with HT29 colon, in the experiment with OVCAR-8 ovarian and in the experiment with K-562 leukemia was more than 100 µM in each case.

As for `COCOCC1CCCN1CN1CCC[C@H]1COCOC` (stereo partly drawn), the TGI in the experiment with CAKI-1 renal, with ACHN renal, in the experiment on M14 melanoma, in the experiment on SW-620 colon, with MDA-MB-435 and in the experiment on PC-3 prostate was more than 100 µM each time. Besides, the TGI is more than 100 µM in the experiment on HCT-116 colon; more than 100 µM in the experiment with NCI/ADR-RES ovarian; 99.5 µM in the experiment with RPMI-8226 leukemia; more than 100 µM with HS 578T breast; more than 100 µM in the experiment with OVCAR-5 ovarian; more than 100 µM in the experiment on SR leukemia. The TGI in the experiment on HL-60(TB) leukemia is 61.3 µM; in the experiment with MDA-MB-231 breast it was more than 100 µM; in the experiment with HT29 colon it was more than 100 µM; in the experiment on OVCAR-8 ovarian it was more than 100 µM; in the experiment with K-562 leukemia, more than 100 µM.

For `CC(C)(C)CC(C)(C)N=C(N)NO`, the TGI is more than 100 µM in the experiment with CAKI-1 renal; 23.4 µM in the experiment with ACHN renal; more than 100 µM with M14 melanoma; more than 100 µM with MALME-3M melanoma; more than 100 µM in the experiment with SW-620 colon; more than 100 µM in the experiment with MDA-MB-435. Also, the TGI with PC-3 prostate, with HCT-116 colon, in the experiment on NCI/ADR-RES ovarian, in the experiment on RPMI-8226 leukemia, in the experiment on HS 578T breast and in the experiment on OVCAR-5 ovarian was more than 100 µM each time. The TGI in the experiment on SR leukemia, in the experiment with HL-60(TB) leukemia, with MDA-MB-231 breast, with HT29 colon, in the experiment with OVCAR-8 ovarian and in the experiment with K-562 leukemia was more than 100 µM throughout.

As to `O=C(/C=C\c1ccccc1)Oc1ccc(/C=C2\CCCCC2=O)cc1`, the TGI is 97.9 µM in the experiment with CAKI-1 renal; more than 100 µM in the experiment with ACHN renal; more than 100 µM with M14 melanoma; more than 100 µM in the experiment with MALME-3M melanoma; more than 100 µM in the experiment on SW-620 colon; 84.6 µM with MDA-MB-435. Moreover, the TGI in the experiment on PC-3 prostate is more than 100 µM; in the experiment on HCT-116 colon it was more than 100 µM; in the experiment with RPMI-8226 leukemia it was 50.6 µM; in the experiment on HS 578T breast it was more than 100 µM; in the experiment on OVCAR-5 ovarian it was more than 100 µM; in the experiment with HL-60(TB) leukemia, 35.2 µM. The TGI in the experiment on MDA-MB-231 breast was more than 100 µM; with HT29 colon it was 31.7 µM; in the experiment on OVCAR-8 ovarian it was more than 100 µM.

For the compound `CC(C)C1SCc2nc3ccccc3n21` (stereo not drawn), the TGI in the experiment with CAKI-1 renal is more than 100 µM; with ACHN renal, more than 100 µM; in the experiment with M14 melanoma, more than 100 µM; with MALME-3M melanoma it was more than 100 µM; in the experiment with SW-620 colon, more than 100 µM; with MDA-MB-435 it was 89.9 µM. The TGI in the experiment with PC-3 prostate was 71.2 µM; in the experiment on HCT-116 colon it was more than 100 µM; in the experiment on NCI/ADR-RES ovarian, more than 100 µM; with RPMI-8226 leukemia, more than 100 µM; in the experiment with HS 578T breast, more than 100 µM; with OVCAR-5 ovarian it was more than 100 µM. The TGI in the experiment with HL-60(TB) leukemia was more than 100 µM; with MDA-MB-231 breast it was 78.2 µM; with HT29 colon it was more than 100 µM; in the experiment on OVCAR-8 ovarian, more than 100 µM; with K-562 leukemia, more than 100 µM.

With `COc1cc2c(cc1OC)C1CCc3ccccc3CN1CC2` (stereo not drawn), the TGI with CAKI-1 renal, with ACHN renal, in the experiment on M14 melanoma, in the experiment with MALME-3M melanoma, with SW-620 colon and in the experiment with MDA-MB-435 was more than 100 µM in each case. The TGI in the experiment with PC-3 prostate, in the experiment with HCT-116 colon, in the experiment on NCI/ADR-RES ovarian, in the experiment with HS 578T breast, in the experiment on OVCAR-5 ovarian and in the experiment on SR leukemia was more than 100 µM throughout. Further, the TGI in the experiment with HL-60(TB) leukemia, in the experiment with MDA-MB-231 breast, with HT29 colon, in the experiment with OVCAR-8 ovarian and in the experiment on K-562 leukemia was more than 100 µM throughout.

As for `CN(C)c1nc(=NCc2cccs2)ss1`, the TGI in the experiment on CAKI-1 renal, with ACHN renal, in the experiment with M14 melanoma, with MALME-3M melanoma, in the experiment with SW-620 colon and in the experiment on MDA-MB-435 was more than 10 µM in each case. The TGI with PC-3 prostate, in the experiment on HCT-116 colon, with NCI/ADR-RES ovarian, with RPMI-8226 leukemia, with HS 578T breast and in the experiment on OVCAR-5 ovarian was more than 10 µM in each case. The TGI in the experiment with SR leukemia was more than 4.9 µM; with HL-60(TB) leukemia it was 2.16 µM; in the experiment on MDA-MB-231 breast, more than 10 µM; with HT29 colon, more than 10 µM; with OVCAR-8 ovarian it was more than 10 µM; in the experiment with K-562 leukemia, more than 10 µM.

In the case of `O=c1cc(-c2ccccc2)oc2ccc(-c3ccc4oc(-c5ccccc5)cc(=O)c4c3)cc12`, the TGI was 46 µM in the experiment with CAKI-1 renal; 59.2 µM in the experiment with ACHN renal; 30.2 µM with M14 melanoma; 34.7 µM in the experiment with MALME-3M melanoma; more than 100 µM in the experiment on SW-620 colon; 35.7 µM with MDA-MB-435. The TGI is 31.2 µM with HCT-116 colon; 51.5 µM with NCI/ADR-RES ovarian; 32.6 µM with RPMI-8226 leukemia; 37.4 µM in the experiment on HS 578T breast; more than 100 µM with OVCAR-5 ovarian; 27.8 µM in the experiment on HL-60(TB) leukemia. The TGI with HT29 colon is more than 100 µM; in the experiment with OVCAR-8 ovarian, 35.2 µM; in the experiment on K-562 leukemia it was 34.3 µM.

Regarding `c1ccc(N=c2sc3ccccc3sc2=Nc2ccccc2)cc1`, the TGI in the experiment on CAKI-1 renal was found to be 4.59 µM; in the experiment with ACHN renal, 3.03 µM; with MALME-3M melanoma, 3.57 µM; in the experiment with SW-620 colon, 3.27 µM; in the experiment on MDA-MB-435, 3.99 µM; in the experiment with PC-3 prostate, 25.5 µM. The TGI with HCT-116 colon was 3.18 µM; with NCI/ADR-RES ovarian, 7.03 µM; in the experiment on RPMI-8226 leukemia it was more than 100 µM; in the experiment with HS 578T breast, 7.51 µM; in the experiment on OVCAR-5 ovarian, 3.83 µM; in the experiment on SR leukemia it was more than 100 µM. Moreover, the TGI in the experiment with HL-60(TB) leukemia was more than 100 µM; in the experiment with MDA-MB-231 breast, 3.67 µM; in the experiment on HT29 colon, 3.86 µM; in the experiment with OVCAR-8 ovarian it was 4.08 µM; in the experiment with K-562 leukemia, more than 100 µM.
